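Dose response: 5 concentrations. Exposure: 48 h. Format: 96-well plates. Endpoint: linear interpolation; highest concentration if not reached. Definition used: TGI = concentration required for complete inhibition of growth.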
What was measured:
Test in all cases: NCI anticancer screen, dose series, 48 h
[1] = test system: 786-0 renal
[2] = test system: A498 renal
[3] = test system: A549 NSCLC
[4] = test system: ACHN renal
[5] = test system: CCRF-CEM leukemia
[6] = test system: COLO 205 colon
[7] = test system: DLD-1 colon
[8] = test system: DMS 114 small cell lung
[9] = test system: EKVX NSCLC
[10] = test system: HCC-2998 colon
[11] = test system: HCT-116 colon
[12] = test system: HCT-15 colon
[13] = test system: HOP-18 NSCLC
[14] = test system: HOP-62 NSCLC
[15] = test system: HOP-92 NSCLC
[16] = test system: HT29 colon
[17] = test system: K-562 leukemia
[18] = test system: KM12 colon
[19] = test system: KM20L2 colon
[20] = test system: LOX IMVI melanoma
[21] = test system: LXFL 529 NSCLC
[22] = test system: M14 melanoma
[23] = test system: M19-MEL melanoma
[24] = test system: MALME-3M melanoma
[25] = test system: MOLT-4 leukemia
[26] = test system: NCI-H226 lung
[27] = test system: NCI-H23 lung
[28] = test system: NCI-H460 lung
[29] = test system: NCI-H522 lung
[30] = test system: OVCAR-3 ovarian
[31] = test system: OVCAR-4 ovarian
[32] = test system: OVCAR-5 ovarian
[33] = test system: OVCAR-8 ovarian
[34] = test system: RXF 393 renal
[35] = test system: RXF-631 renal
[36] = test system: SF-268 CNS
[37] = test system: SF-295 CNS
[38] = test system: SF-539 CNS
[39] = test system: SK-MEL-2 melanoma
[40] = test system: SK-MEL-28 melanoma
[41] = test system: SK-MEL-5 melanoma
[42] = test system: SK-OV-3 ovarian
[43] = test system: SN12C renal
[44] = test system: SNB-19 CNS
[45] = test system: SNB-75 CNS
[46] = test system: SNB-78 CNS
[47] = test system: SW-620 colon
[48] = test system: TK-10 renal
[49] = test system: U251 CNS
[50] = test system: UACC-257 melanoma
[51] = test system: UACC-62 melanoma
[52] = test system: UO-31 renal
[53] = test system: XF 498 CNS
[54] = test system: CAKI-1 renal
[55] = test system: DMS 273 small cell lung
[56] = test system: HL-60(TB) leukemia
[57] = test system: IGROV1 ovarian
[58] = test system: RPMI-8226 leukemia
[59] = test system: SR leukemia
[60] = test system: DU-145 prostate

## [N-]=[N+]=Nc1nnc(CCCCc2nnc(N=[N+]=[N-])o2)o1
[1]
  TGI: > 100 µM
[2]
  TGI: > 100 µM
[3]
  TGI: > 100 µM
[4]
  TGI: > 100 µM
[5]
  TGI: > 100 µM
[6]
  TGI: > 100 µM
[7]
  TGI: > 100 µM
[8]
  TGI: > 100 µM
[9]
  TGI: > 100 µM
[10]
  TGI: > 100 µM
[11]
  TGI: > 100 µM
[12]
  TGI: > 100 µM
[13]
  TGI: > 100 µM
[14]
  TGI: > 100 µM
[15]
  TGI: > 100 µM
[16]
  TGI: > 100 µM
[17]
  TGI: > 100 µM
[18]
  TGI: > 100 µM
[19]
  TGI: > 100 µM
[20]
  TGI: > 100 µM
[21]
  TGI: > 100 µM
[22]
  TGI: > 100 µM
[23]
  TGI: > 100 µM
[24]
  TGI: > 100 µM
[25]
  TGI: > 100 µM
[26]
  TGI: > 100 µM
[27]
  TGI: > 100 µM
[28]
  TGI: > 100 µM
[29]
  TGI: > 100 µM
[30]
  TGI: > 100 µM
[31]
  TGI: > 100 µM
[32]
  TGI: > 100 µM
[33]
  TGI: > 100 µM
[34]
  TGI: > 100 µM
[35]
  TGI: 58.1 µM
[36]
  TGI: > 100 µM
[37]
  TGI: > 100 µM
[38]
  TGI: > 100 µM
[39]
  TGI: > 100 µM
[40]
  TGI: > 100 µM
[41]
  TGI: > 100 µM
[42]
  TGI: > 100 µM
[43]
  TGI: > 100 µM
[44]
  TGI: > 100 µM
[45]
  TGI: > 100 µM
[46]
  TGI: > 100 µM
[47]
  TGI: > 100 µM
[48]
  TGI: > 100 µM
[49]
  TGI: > 100 µM
[50]
  TGI: > 100 µM
[51]
  TGI: > 100 µM
[52]
  TGI: > 100 µM
[53]
  TGI: > 100 µM

## C=CCC(O)c1cc(OC)ccc1OC (centres undefined)
[1]
  TGI: > 100 µM
[3]
  TGI: > 100 µM
[4]
  TGI: > 100 µM
[54]
  TGI: > 100 µM
[5]
  TGI: > 100 µM
[6]
  TGI: > 100 µM
[8]
  TGI: > 100 µM
[55]
  TGI: > 100 µM
[9]
  TGI: > 100 µM
[10]
  TGI: > 100 µM
[12]
  TGI: > 100 µM
[56]
  TGI: > 100 µM
[14]
  TGI: > 100 µM
[15]
  TGI: > 100 µM
[16]
  TGI: > 100 µM
[57]
  TGI: > 100 µM
[17]
  TGI: > 100 µM
[18]
  TGI: > 100 µM
[20]
  TGI: > 100 µM
[21]
  TGI: > 100 µM
[22]
  TGI: > 100 µM
[23]
  TGI: > 100 µM
[24]
  TGI: > 100 µM
[26]
  TGI: > 100 µM
[28]
  TGI: > 100 µM
[29]
  TGI: > 100 µM
[30]
  TGI: > 100 µM
[31]
  TGI: > 100 µM
[32]
  TGI: > 100 µM
[33]
  TGI: > 100 µM
[58]
  TGI: > 100 µM
[34]
  TGI: > 100 µM
[35]
  TGI: > 100 µM
[36]
  TGI: > 100 µM
[37]
  TGI: > 100 µM
[38]
  TGI: > 100 µM
[39]
  TGI: > 100 µM
[40]
  TGI: > 100 µM
[41]
  TGI: > 100 µM
[42]
  TGI: > 100 µM
[43]
  TGI: > 100 µM
[44]
  TGI: > 100 µM
[45]
  TGI: > 100 µM
[47]
  TGI: > 100 µM
[48]
  TGI: > 100 µM
[49]
  TGI: > 100 µM
[50]
  TGI: > 100 µM
[51]
  TGI: > 100 µM
[52]
  TGI: > 100 µM
[53]
  TGI: > 100 µM

## N#CCc1ccccc1/C(C#N)=C1/OC(=N)C(c2ccccc2CC#N)C1=O (centres undefined)
[1]
  TGI: > 100 µM
[3]
  TGI: > 100 µM
[4]
  TGI: > 100 µM
[54]
  TGI: > 100 µM
[5]
  TGI: > 100 µM
[55]
  TGI: > 100 µM
[9]
  TGI: > 100 µM
[11]
  TGI: > 100 µM
[56]
  TGI: > 100 µM
[15]
  TGI: > 100 µM
[16]
  TGI: > 100 µM
[57]
  TGI: > 100 µM
[17]
  TGI: > 100 µM
[18]
  TGI: > 100 µM
[19]
  TGI: > 100 µM
[20]
  TGI: > 100 µM
[21]
  TGI: > 100 µM
[22]
  TGI: > 100 µM
[23]
  TGI: > 100 µM
[25]
  TGI: > 100 µM
[26]
  TGI: > 100 µM
[29]
  TGI: > 100 µM
[30]
  TGI: > 100 µM
[58]
  TGI: > 100 µM
[35]
  TGI: > 100 µM
[36]
  TGI: > 100 µM
[37]
  TGI: > 100 µM
[38]
  TGI: > 100 µM
[40]
  TGI: > 100 µM
[41]
  TGI: > 100 µM
[42]
  TGI: > 100 µM
[45]
  TGI: > 100 µM
[59]
  TGI: > 100 µM
[47]
  TGI: > 100 µM
[48]
  TGI: > 100 µM
[50]
  TGI: > 100 µM
[51]
  TGI: > 100 µM

## C=C(CN(C)C)C(=O)c1ccccc1Cl
[1]
  TGI: 34.3 µM
[2]
  TGI: > 96 µM
[3]
  TGI: > 100 µM
[4]
  TGI: 32.5 µM
[54]
  TGI: 30.9 µM
[5]
  TGI: 44.3 µM
[6]
  TGI: 29.3 µM
[7]
  TGI: 36.3 µM
[8]
  TGI: 29.4 µM
[55]
  TGI: 36.8 µM
[60]
  TGI: > 100 µM
[9]
  TGI: > 76.6 µM
[10]
  TGI: 61 µM
[11]
  TGI: 34 µM
[12]
  TGI: 38.8 µM
[56]
  TGI: 29.6 µM
[13]
  TGI: 33.7 µM
[14]
  TGI: > 100 µM
[15]
  TGI: 31.1 µM
[16]
  TGI: 34.4 µM
[57]
  TGI: > 70.8 µM
[17]
  TGI: > 75.4 µM
[18]
  TGI: > 75 µM
[19]
  TGI: > 60.4 µM
[20]
  TGI: 33.4 µM
[21]
  TGI: 26 µM
[22]
  TGI: 33.3 µM
[23]
  TGI: 33.4 µM
[24]
  TGI: 31.7 µM
[25]
  TGI: > 75.2 µM
[26]
  TGI: > 100 µM
[27]
  TGI: 54.6 µM
[28]
  TGI: > 100 µM
[29]
  TGI: 15.6 µM
[30]
  TGI: 34.9 µM
[31]
  TGI: 40.8 µM
[32]
  TGI: > 60.4 µM
[33]
  TGI: 45.2 µM
[58]
  TGI: 82.3 µM
[34]
  TGI: 29.6 µM
[35]
  TGI: 37.8 µM
[36]
  TGI: 42.7 µM
[37]
  TGI: > 100 µM
[38]
  TGI: > 54.6 µM
[39]
  TGI: 36.5 µM
[40]
  TGI: 19.4 µM
[41]
  TGI: 57.8 µM
[42]
  TGI: > 100 µM
[43]
  TGI: 42.3 µM
[44]
  TGI: > 100 µM
[45]
  TGI: > 80.7 µM
[46]
  TGI: 83.1 µM
[59]
  TGI: > 81.7 µM
[47]
  TGI: 27.7 µM
[48]
  TGI: 39.2 µM
[49]
  TGI: 98.4 µM
[50]
  TGI: 37.5 µM
[51]
  TGI: 34.2 µM
[52]
  TGI: 33.6 µM

Source: PubChem BioAssay (NCI)
